Patent US20210348164A1, “ENDOGENOUS CYTOPLASMIC ALU COMPLEMENTARY DNA IN AGE-RELATED MACULAR DEGENERATION” (University of Virginia Patent Foundation, priority 2018, published 2021)
“Also recorded” adds a separate entry of the source.

Legend:
[1] = tested on: Alu cDNA in primary human RPE cells; assay: Alu cDNA in primary human RPE cells (Alu c-PCR, real-time PCR, in situ hybridization, equator blotting); assay type: cell-based; settings: primary human RPE cells exposed to Alu RNA, heat shock, or DICER1 AS; NNRTIs at high doses
Experimental: Cell culture and transfection. Primary mouse and human RPE cells were isolated as previously described (Kerur et al., 2018). All cells were maintained at 37° C. in a 5% CO2 environment. Mouse RPE cells were cultured in DMEM supplemented with 20% FBS and penicillin/streptomycin antibiotics at standard concentrations; primary human RPE cells were maintained in DMEM supplemented with 10% FBS and antibiotics. The human RPE cell line ARPE19 was cultured as previously described (Kerur et al., 2018) and maintained in DMEM-F12 containing penicillin/streptomycin, Fungizone, and gentamicin. HEK293T cells were cultured in DMEM with 10% fetal bovine serum (FBS) with 100 U/ml penicillin/streptomycin and 2 mM L-glutamine. Primary wild-type mouse bone marrow-derived macrophages (BMDMs) were isolated, and cultured in Iscove's Modified Dulbecco's Medium (IMDM) supplemented with 30% L929 supernatant containing macrophage-stimulating factor, nonessential amino acids, sodium pyruvate, 10% FBS and antibiotics, 50 μM β-mercaptoethanol (Seo et al., 2015), and serum starved in IMDM with 1% FBS and 100 U/ml penicillin/streptomycin overnight prior to LPS stimulation. NRTIs or NNRTIs were added 30 minutes prior to LPS stimulation and again 30 minutes prior to ATP activation. LPS (100 ng/mL) was added for 3-4 hours prior to the addition of ATP. Cell lysates were collected 30 minutes after addition of ATP (5 mM). Primary human subcutaneous pre-adipocytes (Catalogue No. PCS-210-010, ATCC, Manassas, Va., United States of America) and primary human dermal fibroblasts (Catalogue No. PCS-201-012, ATCC) were grown in fibroblast basal medium with fibroblast growth kit for low serum (ATCC).
Umbilical artery vascular smooth muscle cells (Catalogue No. CC-2579, Lonza, Morristown, N.J., United States of America) were grown in SMGM™-2 Smooth Muscle Growth Medium-2 BULLETKIT™ (Lonza). Primary human skeletal myoblasts (Catalogue No. A11440, Thermo Fisher Scientific) were grown in DMEM with 2% horse serum. Primary human epidermal keratinocytes (Catalogue NO. CO215C, Thermo Fisher Scientific) were grown in EPILIFE® Medium (Thermo Fisher Scientific). Human umbilical vein endothelial cells (HUVEC) were grown in HUVEC EGM™-2 Media (Lonza). Primary human peripheral blood mononuclear cells (Catalogue NO. PCS-800-011, ATCC) were directly used without culture for experiments. RPMI 1640 medium with 10% human serum with human GM-CSF (Miltenyi Biotec Inc., Auburn, Calif., United States of America) was used as media during the experiment. Transfections were performed according to the manufacturer's instructions (LIPOFECTAMINE® 2000, Invitrogen). For transfection of primary human peripheral blood mononuclear cells, HiPerFect Transfection Reagent (Qiagen) was used as previously described (Troegeler et al., 2014). NRTIs were administered 60 minutes before transfection and added again upon replacement of media at 8 hours. To induce acid injury or osmotic stress, primary human RPE cells were treated with HCl (pH 4.0 media) or H2O for 30 minutes, 1 hour, and 2 hours at 37° C. in 5% CO2, respectively. NIH3T3 Tet-ON cells were cultured in DMEM with 10% tetracycline-free fetal bovine serum (FBS) with 100 U/ml penicillin/streptomycin. NIH3T3 Tet-ON cells were transfected with pLD401 (see Taylor et al., 2013; gift of J. D. Boeke, Institute for Systems Genetics, NYU Langone Health, New York, New York, United States of America) and human L1 ORF1p abundance was monitored after 24 hours of doxycycline induction. […]

L1 reverse transcriptase = L1 reverse transcriptase (Homo sapiens, UniProt O00370); settings: Merluzzi et al., 1990; Dai et al., 2011; cited from earlier work
Chain of L1 reverse transcriptase (O00370 whole entry, looked up): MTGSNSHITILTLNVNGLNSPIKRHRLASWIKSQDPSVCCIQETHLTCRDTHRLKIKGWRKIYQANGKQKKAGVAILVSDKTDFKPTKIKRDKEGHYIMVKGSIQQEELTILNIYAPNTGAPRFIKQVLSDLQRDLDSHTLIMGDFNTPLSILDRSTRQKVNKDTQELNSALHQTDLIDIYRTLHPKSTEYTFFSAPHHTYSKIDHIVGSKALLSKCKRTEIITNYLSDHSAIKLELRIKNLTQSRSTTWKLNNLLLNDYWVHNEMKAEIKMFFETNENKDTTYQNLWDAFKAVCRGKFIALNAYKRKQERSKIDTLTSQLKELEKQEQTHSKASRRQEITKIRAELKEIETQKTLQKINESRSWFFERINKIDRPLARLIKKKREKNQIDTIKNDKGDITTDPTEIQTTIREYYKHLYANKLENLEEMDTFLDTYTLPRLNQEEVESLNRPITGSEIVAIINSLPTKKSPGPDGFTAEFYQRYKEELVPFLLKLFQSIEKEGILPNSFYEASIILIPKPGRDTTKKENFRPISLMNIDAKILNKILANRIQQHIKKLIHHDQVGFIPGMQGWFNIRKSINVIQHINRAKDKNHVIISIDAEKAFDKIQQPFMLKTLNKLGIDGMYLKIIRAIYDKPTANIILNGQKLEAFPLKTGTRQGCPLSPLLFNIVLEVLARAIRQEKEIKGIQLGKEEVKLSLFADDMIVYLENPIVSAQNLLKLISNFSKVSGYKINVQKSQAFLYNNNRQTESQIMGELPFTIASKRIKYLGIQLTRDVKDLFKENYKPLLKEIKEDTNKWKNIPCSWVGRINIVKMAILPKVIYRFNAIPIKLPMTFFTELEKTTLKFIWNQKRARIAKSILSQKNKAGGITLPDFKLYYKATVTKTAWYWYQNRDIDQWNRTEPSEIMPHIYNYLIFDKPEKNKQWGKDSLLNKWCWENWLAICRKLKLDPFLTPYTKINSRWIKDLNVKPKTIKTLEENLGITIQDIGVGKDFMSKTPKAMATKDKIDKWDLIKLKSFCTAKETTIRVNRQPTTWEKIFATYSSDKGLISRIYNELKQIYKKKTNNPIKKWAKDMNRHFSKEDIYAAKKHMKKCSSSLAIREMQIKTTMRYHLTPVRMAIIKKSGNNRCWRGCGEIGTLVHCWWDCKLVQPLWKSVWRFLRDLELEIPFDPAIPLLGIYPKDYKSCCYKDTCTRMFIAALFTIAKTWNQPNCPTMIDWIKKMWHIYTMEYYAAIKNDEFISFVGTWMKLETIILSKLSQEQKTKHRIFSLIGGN

Compound | Alu cDNA induction [1] | inhibition of L1 reverse transcriptase (L1 reverse transcriptase)
CC(C)Nc1cccnc1N1CCN(C(=O)c2cc3cc(NS(C)(=O)=O)ccc3[nH]2)CC1 [DLV, delavirdine] | prevented Alu cDNA synthesis; also recorded: reduced | inhibit L1 reverse transcriptase at high doses
O=C1Nc2ccc(Cl)cc2[C@@](C#CC2CC2)(C(F)(F)F)O1 [EFV, efavirenz] | prevented Alu cDNA synthesis; also recorded: reduced | inhibit L1 reverse transcriptase at high doses
Cc1ccnc2c1NC(=O)c1cccnc1N2C1CC1 [NVP, nevirapine] | did not prevent Alu cDNA synthesis | does not inhibit L1 reverse transcriptase
L1 siRNA: siRNA targeting L1; cholesterol-conjugated mouse L1 siRNA (SEQ ID NOs: 48 and 49) in vivo, human L1 siRNA sequences in human cells (chain 1 ACUAUUACUCUGAUACCTT; chain 2 UGUACUAAGGUCAAAUCTT; cholesterol conjugated, position not given here) | prevented the production of Alu cDNA; also recorded: reduced | 
